# Source: ChEMBL document CHEMBL1201862, “PubChem BioAssay data set” (2004)
#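 96-well plates; 48 h exposure; 5 concentrations. Endpoints by linear interpolation between flanking doses. Not reached: highest tested concentration assigned. GI50 is the concentration that inhibits growth by half.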 Calls of active or inactive are those of the source. Rule as the data show it: active = GI50 up to about 1.1 µM and inactive = higher. Where a SMILES comes first, the peptide text is derived from it.
# Key:
# Assay in all cases: NCI-60 cell line screen, 48 h
# RPMI-8226 = test system: RPMI-8226
# NCI-H460 = test system: NCI-H460
# IGROV-1 = test system: IGROV-1
# MCF7 = test system: MCF7
# SF-268 = test system: SF-268
# EKVX = test system: EKVX
# MDA-MB-435 = test system: MDA-MB-435
# SR = test system: SR
# SW-620 = test system: SW-620
# ACHN = test system: ACHN
# SF-539 = test system: SF-539
# UO-31 = test system: UO-31
# K562 = test system: K562
# OVCAR-4 = test system: OVCAR-4
# MDA-N = test system: MDA-N
# LOX IMVI = test system: LOX IMVI
# UACC-62 = test system: UACC-62
# HOP-92 = test system: HOP-92
# RXF 393 = test system: RXF 393
# A498 = test system: A498
Structure (SMILES),GI50 (RPMI-8226),GI50 (NCI-H460),GI50 (IGROV-1),GI50 (MCF7),GI50 (SF-268),GI50 (EKVX),GI50 (MDA-MB-435),GI50 (SR),GI50 (SW-620),GI50 (ACHN),GI50 (SF-539),GI50 (UO-31),GI50 (K562),GI50 (OVCAR-4),GI50 (MDA-N),GI50 (LOX IMVI),GI50 (UACC-62),GI50 (HOP-92),GI50 (RXF 393),GI50 (A498)
COc1ccc(C(=CCC(C)C2CCC3[C@@H]4C(OC(C)=O)CC5CC(OC(C)=O)CC[C@]5(C)C4CC(OC(C)=O)[C@]23C)c2ccc(OC)cc2)cc1 (some centres not stated),29.2 µM (inactive),55.2 µM (inactive),> 100 µM (inactive),20.3 µM (inactive),> 100 µM (inactive),> 100 µM (inactive),77.1 µM (inactive),19.5 µM (inactive),91.4 µM (inactive),37.3 µM (inactive),97.7 µM (inactive),47.4 µM (inactive),67.8 µM (inactive),19.1 µM (inactive),–,–,–,–,–,–
CC1(C)CC(=O)C(=CNC(=S)c2ccccc2)C(=O)C1,–,> 100 µM (inactive),> 100 µM (inactive),> 100 µM (inactive),> 100 µM (inactive),> 100 µM (inactive),> 100 µM (inactive),–,> 100 µM (inactive),> 100 µM (inactive),> 100 µM (inactive),> 100 µM (inactive),–,> 100 µM (inactive),> 100 µM (inactive),> 100 µM (inactive),> 100 µM (inactive),> 100 µM (inactive),–,–
CC1=NN(C(=O)c2ccccc2O)C(=O)/C1=C/c1cccc(O)c1,0.731 µM (active),0.774 µM (active),0.198 µM (active),1.6 µM (inactive),0.637 µM (active),2.77 µM (inactive),–,0.938 µM (active),3.49 µM (inactive),0.188 µM (active),0.171 µM (active),0.178 µM (active),0.178 µM (active),2.27 µM (inactive),0.603 µM (active),0.597 µM (active),0.274 µM (active),0.462 µM (active),0.161 µM (active),0.0443 µM (active)
O=C(c1nc2ccc(Cl)cc2[nH]c1=O)C(O)c1cccc([N+](=O)[O-])c1 (configuration not stated),9.66 µM (inactive),> 100 µM (inactive),> 100 µM (inactive),–,33.3 µM (inactive),> 100 µM (inactive),–,85.7 µM (inactive),–,64.3 µM (inactive),> 100 µM (inactive),80.9 µM (inactive),28.6 µM (inactive),> 100 µM (inactive),–,18.5 µM (inactive),67.6 µM (inactive),> 100 µM (inactive),> 100 µM (inactive),> 100 µM (inactive)
CCOC(=O)c1c(C)n(-c2ccc(C)cc2)c(=O)c2ccccc2c(=O)c2c(=O)ccc(=O)c1=2,4.7 µM (inactive),19.4 µM (inactive),37.5 µM (inactive),18.8 µM (inactive),19.8 µM (inactive),21.6 µM (inactive),15.3 µM (inactive),–,25.6 µM (inactive),13.4 µM (inactive),21.9 µM (inactive),23.4 µM (inactive),15.2 µM (inactive),21.4 µM (inactive),–,14.7 µM (inactive),19.6 µM (inactive),16.2 µM (inactive),17.4 µM (inactive),–
COc1ccc(Cc2c(N)[nH]c(=O)[nH]c2=O)cc1,22 µM (inactive),> 100 µM (inactive),> 100 µM (inactive),–,> 100 µM (inactive),> 100 µM (inactive),> 100 µM (inactive),–,> 100 µM (inactive),> 100 µM (inactive),> 100 µM (inactive),90.2 µM (inactive),> 100 µM (inactive),> 100 µM (inactive),> 100 µM (inactive),> 100 µM (inactive),> 100 µM (inactive),33.3 µM (inactive),> 100 µM (inactive),> 100 µM (inactive)
CCC(C)C1NC(=O)C2CCCN2C(=O)CNC(=O)C(C)NC(=O)C(Cc2ccccc2)NC(=O)C(C(C)C)NC1=O (configuration not stated) (cyclo(GPIVFA); configuration not given here),> 100 µM (inactive),> 100 µM (inactive),> 100 µM (inactive),–,> 100 µM (inactive),> 100 µM (inactive),–,> 100 µM (inactive),> 100 µM (inactive),> 100 µM (inactive),> 100 µM (inactive),> 100 µM (inactive),–,> 100 µM (inactive),–,> 100 µM (inactive),> 100 µM (inactive),> 100 µM (inactive),> 100 µM (inactive),> 100 µM (inactive)
CC(=O)CC(=O)c1cc2c(=O)oc(C)cc2oc1=O,> 37.5 µM (inactive),> 37.5 µM (inactive),> 37.5 µM (inactive),> 37.5 µM (inactive),> 37.5 µM (inactive),> 37.5 µM (inactive),–,> 37.5 µM (inactive),> 37.5 µM (inactive),> 37.5 µM (inactive),> 37.5 µM (inactive),> 37.5 µM (inactive),> 37.5 µM (inactive),> 37.5 µM (inactive),> 37.5 µM (inactive),–,> 37.5 µM (inactive),–,> 37.5 µM (inactive),–
CCOC(=O)c1c(N)sc2c1C(C(=O)OCC)CCC2 (configuration not stated),> 100 µM (inactive),> 100 µM (inactive),> 100 µM (inactive),> 100 µM (inactive),–,55.8 µM (inactive),–,66.7 µM (inactive),> 100 µM (inactive),> 100 µM (inactive),–,47.4 µM (inactive),76.6 µM (inactive),–,> 100 µM (inactive),–,> 100 µM (inactive),> 100 µM (inactive),> 100 µM (inactive),12.1 µM (inactive)
COc1ccc(COCC[C@H](C)OC2OC(CO[Si](C)(C)C(C)(C)C)C(OC(=O)CCCN=[N+]=[N-])C(OC(=O)CCCN=[N+]=[N-])C2OC(=O)CCCN=[N+]=[N-])cc1 (some centres not stated),–,55.5 µM (inactive),51.5 µM (inactive),25.9 µM (inactive),35.3 µM (inactive),33.2 µM (inactive),> 100 µM (inactive),–,> 100 µM (inactive),–,27.5 µM (inactive),19.9 µM (inactive),–,27.9 µM (inactive),44.9 µM (inactive),25.2 µM (inactive),58.9 µM (inactive),> 100 µM (inactive),98.2 µM (inactive),> 100 µM (inactive)
O=[N+]([O-])c1ccccc1S(=O)(=O)c1cc(O)cc2c1NCCC2,–,23.4 µM (inactive),17.1 µM (inactive),7.45 µM (inactive),20.7 µM (inactive),16.7 µM (inactive),18.8 µM (inactive),–,8.41 µM (inactive),14.2 µM (inactive),19.1 µM (inactive),15.5 µM (inactive),2.68 µM (inactive),15.3 µM (inactive),17.8 µM (inactive),14.2 µM (inactive),15.2 µM (inactive),0.612 µM (active),16.4 µM (inactive),13.9 µM (inactive)
CC(C)=CCC/C(C)=C/CC/C(C)=C/[C@@H]1[C@@H](CO)[C@]1(C)CC/C=C(\C)CCC=C(C)C,25.2 µM (inactive),47.6 µM (inactive),12.5 µM (inactive),–,19.4 µM (inactive),20.2 µM (inactive),85.9 µM (inactive),19.6 µM (inactive),22.6 µM (inactive),17.2 µM (inactive),22 µM (inactive),18.6 µM (inactive),31.3 µM (inactive),> 100 µM (inactive),–,11.5 µM (inactive),–,16.6 µM (inactive),23.7 µM (inactive),> 100 µM (inactive)
CC(C)(C)OC(=O)NCCC1SC2C=CC1C2 (configuration not stated),> 100 µM (inactive),> 100 µM (inactive),> 100 µM (inactive),> 100 µM (inactive),> 100 µM (inactive),> 100 µM (inactive),> 100 µM (inactive),–,> 100 µM (inactive),> 100 µM (inactive),> 100 µM (inactive),> 100 µM (inactive),> 100 µM (inactive),> 100 µM (inactive),> 100 µM (inactive),> 100 µM (inactive),> 100 µM (inactive),> 100 µM (inactive),> 100 µM (inactive),> 100 µM (inactive)
C[C@@](Br)(C(=O)O)[C@H](Br)C(=O)O,> 100 µM (inactive),> 100 µM (inactive),> 100 µM (inactive),> 100 µM (inactive),> 100 µM (inactive),83.4 µM (inactive),> 100 µM (inactive),–,> 100 µM (inactive),> 100 µM (inactive),–,> 100 µM (inactive),> 100 µM (inactive),> 100 µM (inactive),> 100 µM (inactive),> 100 µM (inactive),> 100 µM (inactive),> 100 µM (inactive),> 100 µM (inactive),> 100 µM (inactive)
O=C(N/C(=C\c1cc(Cl)ccc1Cl)c1nc2cc(Cl)ccc2[nH]1)c1ccccc1,12.2 µM (inactive),15.1 µM (inactive),13.1 µM (inactive),–,13.8 µM (inactive),23 µM (inactive),–,5.43 µM (inactive),16.9 µM (inactive),22.5 µM (inactive),20.1 µM (inactive),11.7 µM (inactive),15.5 µM (inactive),25.8 µM (inactive),–,13.6 µM (inactive),11.4 µM (inactive),11.6 µM (inactive),15.4 µM (inactive),21.4 µM (inactive)
COC(=O)C1=C(\c2ccccc2)c2ccccc2C(=O)N(C2CCCCC2)/C=C\1,–,16.1 µM (inactive),25.8 µM (inactive),19.8 µM (inactive),27.8 µM (inactive),52.6 µM (inactive),17.9 µM (inactive),–,28.6 µM (inactive),15.6 µM (inactive),24 µM (inactive),22.6 µM (inactive),4.59 µM (inactive),27.7 µM (inactive),29.5 µM (inactive),14.2 µM (inactive),–,14.9 µM (inactive),–,30.1 µM (inactive)
